Assay results reported in US20080221132A1, “Multi-Functional Small Molecules as Anti-Proliferative Agents” (priority 2006, published 2008).
Like-named read-outs stand apart in the source and are kept apart here.

Assays:
Lyn Kinase = Lyn Kinase (Homo sapiens, UniProt P07948); experiment: Kinase panel (TABLE F), Lyn Kinase; format: biochemical
Lung_H358 = experiment: Cell proliferation assay (ATPlite), H358; format: cell-based; details: Homo sapiens, NCI-H358; TABLE C; 72 hours, 0.5% fetal bovine serum, ATP content; read-out: IC50 grading, Lung_H358
Protocol: (§1) A representative number of compounds were assayed against several different cell lines using the cell proliferation assay:
(§2) Cell Proliferation Assay:
(§3) Cancer cell lines were plated at 5,000 to 10,000 per well in 96-well flatted bottomed plates with various concentration of compounds. The cells were incubated with compounds for 72 hours in the presence of 0.5% of fetal bovine serum. Growth inhibition was accessed by adenosine triphosphate (ATP) content assay using Perkin Elmer ATPlite kit. ATPlite is an ATP monitoring system based on firefly luciferase. Briefly, 25 μl of mammalian cell lysis solution was added to 50 μl of phenol red-free culture medium per well to lyse the cells and stabilize the ATP. 25 μl of substrate solution was then added to the well and subsequently the luminescence was measured.

[1] = both, Sprague Dawley, rat, in vivo, iv, 8 days
Protocol: The experimental methods used for the toxicity study below are described as follows:
2. Single dosing MTD in rats • a. Sprague Dawley, male and female, 240-260 gram • b. Dosing at 0, 25, 50, 100, 200 mg/kg, iv infusion 5 min • c. 6 rats per group (3 male and 3 female)
Stock solution is diluted with 30% CAPTISOL before use.

[2] = tested on: Epidermoid_A431 (A431, epidermoid carcinoma); experiment: Cell proliferation assay (ATPlite), A431; format: cell-based; details: Homo sapiens, A-431
Protocol: as §1, §2
as §3, with “The cells were incubated with compounds for 72 hours in the presence of 0.5% of fetal bovine serum.” left out

FGFR2 Kinase = FGFR2 Kinase (Homo sapiens, UniProt P21802); experiment: Kinase panel (TABLE F), FGFR2 Kinase; format: biochemical
Sequence of FGFR2 Kinase (P21802 22-821): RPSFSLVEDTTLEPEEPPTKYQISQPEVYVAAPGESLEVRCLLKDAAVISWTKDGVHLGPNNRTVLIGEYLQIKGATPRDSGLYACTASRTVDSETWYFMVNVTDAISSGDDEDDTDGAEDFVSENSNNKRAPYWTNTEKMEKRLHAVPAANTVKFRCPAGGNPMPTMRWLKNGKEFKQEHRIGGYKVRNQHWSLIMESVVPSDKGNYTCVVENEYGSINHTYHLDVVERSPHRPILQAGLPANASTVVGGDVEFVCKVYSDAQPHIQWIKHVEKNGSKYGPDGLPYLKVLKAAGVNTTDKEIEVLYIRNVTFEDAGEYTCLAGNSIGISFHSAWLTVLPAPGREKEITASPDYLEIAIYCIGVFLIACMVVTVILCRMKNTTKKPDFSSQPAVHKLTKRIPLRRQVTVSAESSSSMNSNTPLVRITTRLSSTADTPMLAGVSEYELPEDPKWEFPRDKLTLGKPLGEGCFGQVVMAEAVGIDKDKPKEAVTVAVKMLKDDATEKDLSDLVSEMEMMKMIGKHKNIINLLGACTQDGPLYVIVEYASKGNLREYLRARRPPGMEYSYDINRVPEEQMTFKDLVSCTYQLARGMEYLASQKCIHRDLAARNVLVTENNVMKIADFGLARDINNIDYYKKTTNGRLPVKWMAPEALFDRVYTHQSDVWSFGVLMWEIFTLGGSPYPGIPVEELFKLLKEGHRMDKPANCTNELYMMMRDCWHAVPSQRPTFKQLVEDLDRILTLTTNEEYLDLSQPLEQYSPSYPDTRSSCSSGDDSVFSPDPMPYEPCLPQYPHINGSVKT

Lung_H1703 = experiment: Cell proliferation assay (ATPlite), H1703; format: cell-based; details: Homo sapiens, NCI-H1703; TABLE C; 72 hours, 0.5% fetal bovine serum, ATP content; read-out: IC50 grading, Lung_H1703
Protocol: as §1, §2, §3

Pancreas_PANC1 = experiment: Cell proliferation assay (ATPlite), PANC1; format: cell-based; details: Homo sapiens, PANC-1; TABLE C; 72 hours, 0.5% fetal bovine serum, ATP content; read-out: IC50 grading, Pancreas_PANC1
Protocol: as §1, §2, §3

Lung_H1975 = experiment: Cell proliferation assay (ATPlite), H1975; format: cell-based; details: Homo sapiens, NCI-H1975; TABLE C; 72 hours, 0.5% fetal bovine serum, ATP content; read-out: IC50 grading, Lung_H1975
Protocol: as §1, §2, §3

Sequence of Lyn Kinase (P07948 whole entry): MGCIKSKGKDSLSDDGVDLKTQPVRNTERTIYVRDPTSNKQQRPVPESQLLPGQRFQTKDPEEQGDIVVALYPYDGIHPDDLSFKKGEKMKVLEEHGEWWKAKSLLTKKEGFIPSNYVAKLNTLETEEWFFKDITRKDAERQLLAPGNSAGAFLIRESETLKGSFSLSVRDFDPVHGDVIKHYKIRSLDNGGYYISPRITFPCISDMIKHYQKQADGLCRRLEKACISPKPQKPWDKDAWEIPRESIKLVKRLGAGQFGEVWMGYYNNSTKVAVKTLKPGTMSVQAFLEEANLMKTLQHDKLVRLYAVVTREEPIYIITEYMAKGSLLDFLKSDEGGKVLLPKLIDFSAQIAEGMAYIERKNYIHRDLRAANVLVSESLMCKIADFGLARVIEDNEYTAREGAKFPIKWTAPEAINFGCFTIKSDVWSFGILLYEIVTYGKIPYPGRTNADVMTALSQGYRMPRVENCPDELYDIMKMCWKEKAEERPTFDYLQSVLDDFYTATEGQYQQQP

C#Cc1cccc(Nc2ncnc3cc(OC)c(OCCCCCCC(=O)NO)cc23)c1 [Compound 12]
inhibition at 5 µM (Lyn Kinase): 95%
IC50 (Lung_H358): 0.1 to 1 µM
dose without significant change in body weight [1]: up to 200 mg/kg
IC50 ([2]; TABLE C, 72 hours, 0.5% fetal bovine serum, ATP content, read-out: IC50 grading, Epidermoid_A431): 0.1 to 1 µM
IC50 ([2]; TABLE D, Epidermoid carcinoma, read-out: IC50 grading, A431): 0.05 to 0.5 µM
inhibition at 5 µM (FGFR2 Kinase): 73%
IC50 (Lung_H1703): 0.1 to 1 µM
IC50 (Pancreas_PANC1): 0.1 to 1 µM
IC50 (Lung_H1975): 0.1 to 1 µM
